Results reported in ChEMBL document CHEMBL1201862, “PubChem BioAssay data set” (2004).
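Results reflect a 48-hour exposure of cells in 96-well plates to compound at five concentrations. Here, GI50 denotes the concentration required for 50% inhibition of growth.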 The source made the active and inactive calls. No stated cut-off is given here; in the data, active = GI50 up to about 1.1 µM and inactive = higher.

Tests used:
Test in all cases: inhibition of tumour cell growth, NCI panel, 48 h
[1] = system: 786-0
[2] = system: ACHN
[3] = system: BT-549
[4] = system: CAKI-1
[5] = system: COLO 205
[6] = system: HCT-15
[7] = system: HOP-62
[8] = system: HT-29
[9] = system: KM12
[10] = system: M14
[11] = system: NCI-H226
[12] = system: NCI-H522
[13] = system: OVCAR-8
[14] = system: SK-MEL-28
[15] = system: SK-MEL-2
[16] = system: SK-MEL-5
[17] = system: SK-OV-3
[18] = system: T47D
[19] = system: UACC-257
[20] = system: UO-31

| SMILES | GI50 [1] | GI50 [2] | GI50 [3] | GI50 [4] | GI50 [5] | GI50 [6] [µM] | GI50 [7] | GI50 [8] | GI50 [9] | GI50 [10] | GI50 [11] | GI50 [12] | GI50 [13] | GI50 [14] | GI50 [15] | GI50 [16] | GI50 [17] | GI50 [18] | GI50 [19] | GI50 [20] |
| --- | --- | --- | --- | --- | --- | --- | --- | --- | --- | --- | --- | --- | --- | --- | --- | --- | --- | --- | --- | --- |
| Cc1ccsc1C(=S)Nc1ccc(Cl)c(/C=N/OC(C)C)c1 | 42.5 µM (inactive) | 25.2 µM (inactive) | 67.9 µM (inactive) | 46.3 µM (inactive) | 18.7 µM (inactive) | 15.5 | 64.9 µM (inactive) | 27.5 µM (inactive) | 26.4 µM (inactive) | 37.7 µM (inactive) | 31.3 µM (inactive) | 28.3 µM (inactive) | 44.3 µM (inactive) | 67.8 µM (inactive) | 55.1 µM (inactive) | 25.2 µM (inactive) | 55.5 µM (inactive) | 17.8 µM (inactive) | 47.9 µM (inactive) | 21.1 µM (inactive) |
| CSC1=C(C)C(/C=N/Nc2ccc([N+](=O)[O-])cc2)=C(C)N(c2ccccc2)S1(=O)=O | > 100 µM (inactive) | 44.9 µM (inactive) | 20.8 µM (inactive) | > 100 µM (inactive) | 48.2 µM (inactive) | 68.9 | > 100 µM (inactive) | 28.5 µM (inactive) | 26.5 µM (inactive) | 38.6 µM (inactive) | > 100 µM (inactive) | 12.9 µM (inactive) | 17.3 µM (inactive) | > 100 µM (inactive) | > 100 µM (inactive) | 17.4 µM (inactive) | > 100 µM (inactive) | 3.09 µM (inactive) | > 100 µM (inactive) | 29.3 µM (inactive) |
| CC(C)C1CN1CC(O)Cn1ccnc1[N+](=O)[O-] (stereo not given) | > 100 µM (inactive) | > 100 µM (inactive) | > 100 µM (inactive) | > 100 µM (inactive) | > 100 µM (inactive) | > 100 | > 100 µM (inactive) | > 100 µM (inactive) | > 100 µM (inactive) | > 100 µM (inactive) | > 100 µM (inactive) | > 100 µM (inactive) | > 100 µM (inactive) | > 100 µM (inactive) | > 100 µM (inactive) | > 100 µM (inactive) | > 100 µM (inactive) | > 100 µM (inactive) | > 100 µM (inactive) | > 100 µM (inactive) |
| COc1ccc(/C=C2\CCC(CNc3ccc(S(N)(=O)=O)cc3)C2=O)cc1 (stereo not given) | 4.9 µM (inactive) | 23.1 µM (inactive) | 18.7 µM (inactive) | 3.27 µM (inactive) | 16.6 µM (inactive) | 4.71 | 37.8 µM (inactive) | 10.2 µM (inactive) | 11.3 µM (inactive) | 15.5 µM (inactive) | > 69.5 µM (inactive) | 4.52 µM (inactive) | 18 µM (inactive) | 16.7 µM (inactive) | 75.7 µM (inactive) | 16.3 µM (inactive) | > 100 µM (inactive) | 17 µM (inactive) | 20 µM (inactive) | 5.71 µM (inactive) |
| CCOC(=O)c1nc[nH]c1/N=N/N(C)N | 84.7 µM (inactive) | > 100 µM (inactive) | > 100 µM (inactive) | 15.4 µM (inactive) | 36.6 µM (inactive) | 91.4 | > 100 µM (inactive) | 61.1 µM (inactive) | 1.87 µM (inactive) | > 100 µM (inactive) | > 100 µM (inactive) | 22.4 µM (inactive) | > 100 µM (inactive) | > 100 µM (inactive) | > 100 µM (inactive) | > 100 µM (inactive) | > 100 µM (inactive) | 20.8 µM (inactive) | > 100 µM (inactive) | > 100 µM (inactive) |
| COc1ccc2c(cnc3c4cc(OC)c(OC)cc4ccc23)c1 | > 100 µM (inactive) | > 100 µM (inactive) | > 100 µM (inactive) | > 100 µM (inactive) | > 100 µM (inactive) | > 100 | > 100 µM (inactive) | > 100 µM (inactive) | > 100 µM (inactive) | > 100 µM (inactive) | > 100 µM (inactive) | > 100 µM (inactive) | > 100 µM (inactive) | > 100 µM (inactive) | > 100 µM (inactive) | > 100 µM (inactive) | > 100 µM (inactive) | > 100 µM (inactive) | > 100 µM (inactive) | > 100 µM (inactive) |
| O=C(CCC(=O)c1ccc(Cl)cc1)NO | > 100 µM (inactive) | > 100 µM (inactive) | > 100 µM (inactive) | > 100 µM (inactive) | > 100 µM (inactive) | > 100 | > 100 µM (inactive) | > 100 µM (inactive) | > 100 µM (inactive) | > 100 µM (inactive) | > 100 µM (inactive) | > 100 µM (inactive) | > 100 µM (inactive) | > 100 µM (inactive) | > 100 µM (inactive) | > 100 µM (inactive) | > 100 µM (inactive) | > 100 µM (inactive) | > 100 µM (inactive) | > 100 µM (inactive) |
| COc1ccc(CCN2CCN(CCCc3ccccc3)CC2)cc1 | > 100 µM (inactive) | > 100 µM (inactive) | 70.5 µM (inactive) | > 100 µM (inactive) | 22.9 µM (inactive) | 37.7 | > 100 µM (inactive) | 33.5 µM (inactive) | 72.6 µM (inactive) | 86.9 µM (inactive) | > 100 µM (inactive) | > 100 µM (inactive) | > 100 µM (inactive) | > 100 µM (inactive) | > 100 µM (inactive) | 23.2 µM (inactive) | > 100 µM (inactive) | 34 µM (inactive) | 77.3 µM (inactive) | 55.6 µM (inactive) |
| CCCC[N+](CCCC)(CCCC)CCCC.O=S(=O)([O-])ON=C1c2ccccc2-c2ccccc21 | > 100 µM (inactive) | > 100 µM (inactive) | > 100 µM (inactive) | > 100 µM (inactive) | > 100 µM (inactive) | 10 | > 100 µM (inactive) | > 100 µM (inactive) | > 100 µM (inactive) | > 100 µM (inactive) | > 100 µM (inactive) | 47.2 µM (inactive) | > 100 µM (inactive) | > 100 µM (inactive) | > 100 µM (inactive) | 61.5 µM (inactive) | > 100 µM (inactive) | > 100 µM (inactive) | > 100 µM (inactive) | > 100 µM (inactive) |
| CC1=NN(c2cccc(Cl)c2)C2(C1)SCC(=O)N2c1nc2ccccc2s1 (stereo not given) | 21.8 µM (inactive) | 26.8 µM (inactive) | 29.3 µM (inactive) | 32.6 µM (inactive) | 18.1 µM (inactive) | 33.2 | 19.4 µM (inactive) | 27.1 µM (inactive) | 25.5 µM (inactive) | 26.7 µM (inactive) | 11.6 µM (inactive) | 25.9 µM (inactive) | 35.6 µM (inactive) | 32.8 µM (inactive) | 22.3 µM (inactive) | 17.5 µM (inactive) | 21.6 µM (inactive) | 19.8 µM (inactive) | 22.4 µM (inactive) | 21.1 µM (inactive) |
| CCOC(=O)c1c2c(n(-c3ccc(C)cc3)c1C)-c1ccccc1C(=O)C2(C(=O)OCC)C(=O)OCC | 50.6 µM (inactive) | 44.3 µM (inactive) | 24.8 µM (inactive) | 39.9 µM (inactive) | 45.3 µM (inactive) | 36.1 | 78.7 µM (inactive) | 27.3 µM (inactive) | 38.5 µM (inactive) | 60.3 µM (inactive) | 55 µM (inactive) | 25.1 µM (inactive) | 29.2 µM (inactive) | 27.3 µM (inactive) | 36.3 µM (inactive) | 19.2 µM (inactive) | > 76.6 µM (inactive) | 20.7 µM (inactive) | 33.8 µM (inactive) | 23.1 µM (inactive) |
| COc1cccc(C(=O)N[C@@H]2[C@H](O)[C@@H](CO)O[C@H]2n2cnc3c(N)ncnc32)c1 | > 100 µM (inactive) | > 100 µM (inactive) | > 100 µM (inactive) | > 100 µM (inactive) | > 100 µM (inactive) | > 100 | > 100 µM (inactive) | > 100 µM (inactive) | > 100 µM (inactive) | > 100 µM (inactive) | > 100 µM (inactive) | > 100 µM (inactive) | > 100 µM (inactive) | > 100 µM (inactive) | > 100 µM (inactive) | > 100 µM (inactive) | > 100 µM (inactive) | > 100 µM (inactive) | > 100 µM (inactive) | > 100 µM (inactive) |
| COc1cc2c(/C=C3/C(=O)Nc4ccccc43)c(Cl)[nH]c2cc1C | 0.0605 µM (active) | 0.0923 µM (active) | 0.0603 µM (active) | 0.0689 µM (active) | 0.0552 µM (active) | 0.0408 | 0.107 µM (active) | 0.0495 µM (active) | 0.0329 µM (active) | 0.0366 µM (active) | 0.373 µM (active) | 0.0446 µM (active) | 0.0869 µM (active) | 9.12 µM (inactive) | 0.082 µM (active) | 0.0467 µM (active) | 0.0314 µM (active) | 13.7 µM (inactive) | 1.52 µM (inactive) | 0.0745 µM (active) |
| Cc1c(S(=O)(=O)N/C(=N\O)Nc2ccc(Cl)cc2)sc2ccc(Cl)cc12 | 17.5 µM (inactive) | 15.2 µM (inactive) | 17.4 µM (inactive) | 17.5 µM (inactive) | 15.9 µM (inactive) | 16.6 | 17.7 µM (inactive) | 19.3 µM (inactive) | 18.4 µM (inactive) | 16.9 µM (inactive) | 17.7 µM (inactive) | 9.91 µM (inactive) | 17.3 µM (inactive) | 16.4 µM (inactive) | 18.7 µM (inactive) | 14.1 µM (inactive) | 15.6 µM (inactive) | 19 µM (inactive) | 16.4 µM (inactive) | 35.8 µM (inactive) |
